Test results as given in paper PMC5778160, “Functional genomics analysis reveals the biosynthesis pathways of important cellular components (alginate and fucoidan) of Saccharina” (Current Genetics, 2017).

Legend:
EsiGMD2 = test system: T1, EsiGMD2; experiment: enzyme kinetics (GDP-mannose dehydrogenase activity); format: biochemical, Ectocarpus siliculosus; conditions: read-out: NAD / k m; co-substrate GDP-mannose; optimum pH 8.75–9, 30–37 °C; unit as in table header, probably a misprint for μM; heading: NAD / k m
T1 construct: gene GMD2; synthesized gene, pET32a, E. coli BL21(DE3), His-resin purified
Source text: enzyme kinetics (GDP-mannose dehydrogenase activity) on EsiGMD2

EsiGMD3 = test system: T2, EsiGMD3; experiment: as above; format: biochemical, Ectocarpus siliculosus; conditions: read-out: NAD / k m; co-substrate GDP-mannose; optimum pH 8.75, 30–37 °C; unit as in table header, probably a misprint for μM; heading: NAD / k m
T2 construct: gene GMD3; synthesized gene, pET32a, E. coli BL21(DE3), His-resin purified
Source text: enzyme kinetics (GDP-mannose dehydrogenase activity) on EsiGMD3

[1] = substrate: O=P(O)(O)O[C@H]1O[C@H](CO)[C@@H](O)[C@H](O)[C@@H]1O; experiment: enzyme kinetics, double reciprocal plot (phosphomannomutase activity); format: biochemical, Saccharina japonica; conditions: optimum pH 7.4, 25 °C
[2] = substrate: O=P(O)(O)O[C@H]1O[C@H](CO)[C@@H](O)[C@H](O)[C@H]1O; experiment: enzyme kinetics, double reciprocal plot (phosphoglucomutase activity); format: biochemical, Saccharina japonica; conditions: optimum pH 7.0, 30 °C

Km (EsiGMD2) | Km (EsiGMD3) | Molecule | Km [1] | Km [2]
79.6 µM | 43.5 µM | NC(=O)c1ccc[n+]([C@@H]2O[C@H](COP(=O)(O)OP(=O)(O)OC[C@H]3O[C@@H](n4cnc5c(N)ncnc54)[C@H](O)[C@@H]3O)[C@@H](O)[C@H]2O)c1 [NAD] | – | –
– | – | SjaPMM (Saccharina japonica) (protein, synthesized gene, pET32a, E. coli BL21(DE3), His-resin purified) MSVTKNPRIIALFDVDGTLTAARKEVLPDMVEFIKTLRERITIGVVGGSDLPKQKEQLGESVMEDYDYSFSQNGLVAYKAGELIGQQTISKHVGEENLKKIINWVLKYMSGIDIPVKRGTFIEFRTGMLNISPVGRNCSQEERDAFEQYDNVHKIRETMVAAMREEFADLNLTFSIGGQISFDLFPTGWDKTFCLQFLGEGTAEYDEIHFFGDKTFKGGNDNEIFESERTIGHTVTSPADTIQQCKELFFKD | 699.41 µM | 41.04 µM
